Assay results published in ChEMBL document CHEMBL1144692, “Alkaloids from stems and leaves of Stemona japonica and their insecticidal activities” (J Nat Prod, 2008).
Active and inactive are the calls of the source. The rule behind the calls is not given here.

What was measured:
[1] = target: T1, Nicotinic acetylcholine receptor alpha1 subunit (Heliothis virescens, UniProt O46128); assay: Agonist activity at nAChR in Heliothis virescens neuronal cells by voltage clamp technique; type: functional, cell-based
T1 sequence (O46128 whole entry): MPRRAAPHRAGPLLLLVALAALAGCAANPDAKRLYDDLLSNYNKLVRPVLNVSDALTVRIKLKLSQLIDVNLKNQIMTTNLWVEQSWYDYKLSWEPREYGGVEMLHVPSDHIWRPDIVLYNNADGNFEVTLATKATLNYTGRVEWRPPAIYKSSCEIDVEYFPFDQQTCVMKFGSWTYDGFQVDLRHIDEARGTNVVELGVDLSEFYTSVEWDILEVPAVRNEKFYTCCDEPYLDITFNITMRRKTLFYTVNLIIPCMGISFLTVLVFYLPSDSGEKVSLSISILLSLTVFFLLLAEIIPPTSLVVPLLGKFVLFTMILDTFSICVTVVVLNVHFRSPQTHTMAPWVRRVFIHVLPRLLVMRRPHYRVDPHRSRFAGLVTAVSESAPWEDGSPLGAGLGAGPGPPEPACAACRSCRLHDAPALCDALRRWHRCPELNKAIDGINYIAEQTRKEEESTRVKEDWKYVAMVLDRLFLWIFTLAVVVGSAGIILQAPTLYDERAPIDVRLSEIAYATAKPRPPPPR

Spodoptera frugiperda [2] = assay: Insecticidal activity against Spodoptera frugiperda at 500 g/ha; type: functional, organism-based
Myzus persicae [3] = assay: Insecticidal activity against Myzus persicae at 500 g/ha; type: functional, organism-based
[4] = target: T1, Nicotinic acetylcholine receptor alpha1 subunit; assay: Antagonist activity at nAChR in Heliothis virescens neuronal cells by voltage clamp technique; type: functional, cell-based
Spodoptera frugiperda [5] = assay: Insecticidal activity against Spodoptera frugiperda at 4 to 500 g/ha; type: functional, organism-based
Myzus persicae [6] = assay: Insecticidal activity against Myzus persicae at 4 to 500 g/ha; type: functional, organism-based
[7] = target: T2, Nicotinic acetylcholine receptor alpha1 subunit (Heliothis virescens) (UniProt O46128); assay: Antagonist activity at nAChR in Heliothis virescens neuronal cells assessed as blockade of acetylcholine-induced response at 10 uM by voltage clamp technique; type: functional, cell-based; parameters: scale not given: the % may be the effect or the level left
T2 sequence (whole entry): T1 sequence (O46128 whole entry)

In the case of `CCCC[C@]12[C@H]3C[C@H]4[C@H]5[C@H](C)C(C6OC(=O)C(C)=C6OC)O[C@]5(O3)[C@@H]1[C@H](O)CN42` (stereo partly drawn) [6beta-hydroxystemofoline], the EC50 [1] is reported as 157 nM, the Activity (Spodoptera frugiperda [2]) is reported as “inactive” and the Activity (Myzus persicae [3]) is reported as “inactive”.

In the case of `CCCC[C@]12[C@@H]3C[C@H]4[C@H]5[C@H](C)C(C6OC(=O)C(CO)=C6OC)O[C@]5(O3)[C@@H]1CCN42` (some centres undefined) [16-hydroxystemofoline], the EC50 [1] is reported as 12 nM.

`COC1=C(C)C(=O)O/C1=C(\O)[C@@H](C)[C@H]1[C@@H](O)CCCN2[C@H]1CC[C@H]2[C@@H]1C[C@H](C)C(=O)O1` [PROTOSTEMODIOL] gave an IC50 [4] of 10000 nM.

In the case of `CCCC[C@@]12C3CCN1[C@H]1C[C@H]2O[C@@]32O/C(=C3\OC(=O)C(C)=C3OC)[C@@H](C)[C@H]12` [STEMOFOLINE], the EC50 [1] is reported as 50 nM, the Activity (Spodoptera frugiperda [5]) is reported as “Active” and the Activity (Myzus persicae [6]) is reported as “Active”.

`CC1=C[C@H]([C@H]2O[C@@H]3CCCN4[C@@H](CC[C@H]4[C@@H]4C[C@H](C)C(=O)O4)[C@H]3[C@@H]2C)OC1=O` (relative stereo) showed an Activity [7] of 90%.
